# Experimental data published in EPA's ToxRefDB 2.
# What was measured:
# dog [1] = settings: Subchronic oral toxicity in nonrodent, beagle, Capsule, dose end: 13 week, group: systemic
# rat [2] = settings: Prenatal developmental toxicity study, sprague dawley, Oral, Gavage/Intubation, dose end: 15 GD
# rat [3] = settings: Combined chronic toxicity/carcinogenicity, sprague dawley, Oral, Feed, dose end: 24 month, group: systemic
# rat [4] = settings: Multigenerational reproductive toxicity study, other, Oral, Feed, dose end: 2 generation
# dog [5] = settings: Chronic toxicity; beagle; Oral; Capsule; dose end: 52 week; group: systemic; systemic / hematology / anemia / anemia - hemolytic + systemic / hematology / erythrocyte (rbc) count differential / erythrocyte (rbc) + …
# mouse [6] = settings: Carcinogenicity; other; Oral; Feed; group: systemic; systemic / hematology / anemia / anemia - nos + systemic / pathology microscopic / bone marrow / hemosiderosis + systemic / pathology …
# rat [7] = settings: Subchronic oral toxicity in rodents, sprague dawley, Feed, dose end: 90 day, group: systemic
# mouse [8] = settings: Subchronic oral toxicity in rodents, Feed, dose end: 3 month, group: systemic
# rat [9] = settings: Sub-acute repeat dose toxicity; sprague dawley; Oral; Feed; dose end: 28 day; group: systemic; systemic / clinical chemistry / cholesterol / cholesterol + systemic / clinical chemistry / triglycerides / triglycerides + systemic / …
# rat [10] = settings: Subchronic oral toxicity in rodents, sprague dawley, Feed, dose end: 13 week, group: systemic, systemic / clinical chemistry / cholesterol / cholesterol + systemic / clinical chemistry / globulins / globulins + systemic / clinical …
# [11] = systemic / hematology / anemia / anemia - hemolytic + systemic / hematology / erythrocyte (rbc) count differential / erythrocyte (rbc) + …
# [12] = group: developmental, developmental / developmental malformation / trunk / umbilical hernia
# [13] = group: maternal, systemic / in life observation / clinical signs / hemorrhagic perineal discharge
# [14] = group: maternal, systemic / in life observation / clinical signs / hemorrhagic perineal discharge + reproductive / reproductive performance / …
# [15] = systemic / hematology / anemia / anemia - hemolytic + systemic / in life observation / body weight / body weight + systemic / in life …
# [16] = systemic / in life observation / clinical signs / alopecia
# [17] = group: offspring, systemic / in life observation / body weight / offspring (pup) weight + systemic / in life observation / body weight / offspring (pup) …
# [18] = group: parental, systemic / organ weight / spleen / absolute + systemic / organ weight / spleen / relative to body weight + systemic / pathology microscopic…
# [19] = group: parental, systemic / organ weight / spleen / relative to body weight
# [20] = systemic / in life observation / body weight / body weight + systemic / in life observation / food consumption / food consumption + systemic…
# [21] = systemic / organ weight / spleen / relative to body weight
# [22] = systemic / organ weight / spleen / relative to body weight + systemic / pathology microscopic / spleen / hemosiderosis + systemic / in life …
smiles,measurement,setting,value
CSC(=O)c1cccc2nnsc12 [Acibenzolar-S-methyl],LOAEL,dog [1]; [11],200 mg/kg/day
same,NEL,dog [1]; [11],10 mg/kg/day
same,NOAEL,dog [1]; [11],50 mg/kg/day
same,LEL,dog [1]; systemic / organ weight / liver / absolute + systemic / organ weight / liver / relative to body weight,50 mg/kg/day
same,LEL,rat [2]; [12],10 mg/kg/day
same,LOAEL,rat [2]; [12],10 mg/kg/day
same,NEL,rat [2]; [12],< 10 mg/kg/day
same,NOAEL,rat [2]; [12],< 10 mg/kg/day
same,LEL,rat [2]; [13],50 mg/kg/day
same,LOAEL,rat [2]; [13],400 mg/kg/day
same,NEL,rat [2]; [14],10 mg/kg/day
same,NOAEL,rat [2]; [14],200 mg/kg/day
same,LOAEL,rat [3]; [15],312 mg/kg/day
same,NOAEL,rat [3]; [15],96.9 mg/kg/day
same,LEL,rat [3]; [16],0.9 mg/kg/day
same,NEL,rat [3]; [16],< 0.9 mg/kg/day
same,LEL,rat [4]; [17],100 mg/kg/day
same,LOAEL,rat [4]; [17],100 mg/kg/day
same,NEL,rat [4]; [17],10 mg/kg/day
same,NOAEL,rat [4]; [17],10 mg/kg/day
same,LOAEL,rat [4]; [18],100 mg/kg/day
same,NOAEL,rat [4]; [18],10 mg/kg/day
same,LEL,rat [4]; [19],1 mg/kg/day
same,NEL,rat [4]; [19],< 1 mg/kg/day
same,LEL,dog [5],200 mg/kg/day
same,LOAEL,dog [5],200 mg/kg/day
same,NEL,dog [5],25 mg/kg/day
same,NOAEL,dog [5],25 mg/kg/day
same,LEL,mouse [6],234 mg/kg/day
same,LOAEL,mouse [6],234 mg/kg/day
same,NEL,mouse [6],10.8 mg/kg/day
same,NOAEL,mouse [6],10.8 mg/kg/day
same,LEL,rat [7]; systemic / clinical chemistry / sodium / sodium,126 mg/kg/day
same,LOAEL,rat [7]; [20],516 mg/kg/day
same,NEL,rat [7]; [20],24.6 mg/kg/day
same,NOAEL,rat [7]; [20],126 mg/kg/day
same,LEL,mouse [8]; [21],47.4 mg/kg/day
same,NEL,mouse [8]; [21],< 47.4 mg/kg/day
same,LOAEL,mouse [8]; [22],152 mg/kg/day
same,NOAEL,mouse [8]; [22],30.6 mg/kg/day
O=B[O-].O=B[O-].[Ba+2] [Barium metaborate],LEL,rat [9],881 mg/kg/day
same,LOAEL,rat [9],881 mg/kg/day
same,NEL,rat [9],459 mg/kg/day
same,NOAEL,rat [9],459 mg/kg/day
same,LEL,rat [10],349 mg/kg/day
same,LOAEL,rat [10],349 mg/kg/day
same,NEL,rat [10],70 mg/kg/day
same,NOAEL,rat [10],70 mg/kg/day
